Test results published in patent publication US12583851B2, “Heteroaryl-substituted pyrazine derivatives as pesticides” (Elanco Animal Health GmbH, priority 2019, dated 2026).

What was measured:
Format in all cases: in vivo
[1] = test system: green peach aphid (Myzus persicae); experiment: Myzus persicae spray test; conditions: foliar, 120 h, Chinese cabbage leaf disks, after 5 days
In short: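 Chinese cabbage leaf disks carrying all instars of M. persicae sprayed with compound in acetone/DMF, diluted in water with 1000 ppm alkylarylpolyglycol ether emulsifier. Percent mortality scored after 5 days (100% = all aphids killed).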

[2] = test system: adult engorged female ticks (Rhipicephalus microplus); experiment: Rhipicephalus (Boophilus) microplus injection test; conditions: 168 h, 4 μg/animal, egg deposition after 7 days, read-out: efficacy (infertile eggs)
In short: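 Five adult engorged female ticks injected into the abdomen with 1 μL compound solution in DMSO, then held in a climate chamber. Fertile egg deposition assessed after 7 days, unclear eggs kept until hatching (about 42 days); efficacy 100% = all eggs infertile, 0% = all fertile.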

[3] = test system: adult Blattella germanica strain PAULINIA; experiment: Blattella germanica test (BLTTGE surface treatment & contact assay); conditions: surface concentration 20 mg/m^2, 30 minutes exposure, 24 hours after contact, read-out: mortality (efficacy)
Experimental: Blattella germanica Test (BLTTGE Surface Treatment & Contact Assay)
(§1) Solvent: Aceton+2000 ppm rapeseed oil methyl ester (RME)
(§2) In order to produce a sufficient, active ingredient containing solution it is necessary to solve the test compound in the solvent-mix (acetone at 2 mg/ml/RME 2000 ppm). This solution is pipetted onto a glazed tile and after evaporation of the acetone, adult animals of the species Blattella germanica strain PAULINIA are placed onto the dried surface. The exposure time is 30 minutes.
(§3) Mortality in percent (%) is determined 24 hours after contact of the insects to the treated surface. 100% mortality means that all tested insects are dead, whereas 0% means that no insect died.

[4] = test system: adult mosquitoes Aedes aegypti strain MONHEIM; experiment: Aedes aegypti test (AEDSAE surface treatment & contact assay); conditions: 24 hours after contact, read-out: mortality (efficacy); for mortality at 4 mg/m2: surface concentration 4 mg/m^2, 30 minutes exposure; for mortality at 20 mg/m2: surface concentration 20 mg/m^2, 30 minutes exposure
Experimental: Aedes aegypti Test (AEDSAE Surface Treatment & Contact Assay)
as §1
as §2, with “mosquitoes” for “animals”, “Aedes aegypti” for “Blattella germanica”, “MONHEIM” for “PAULINIA”
as §3

[5] = test system: fall armyworm larvae (Spodoptera frugiperda); experiment: Spodoptera frugiperda spray test; conditions: 168 h, maize leaf sections, after 7 days
In short: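 Compound dissolved in acetone/dimethylformamide, diluted in water containing 1000 ppm alkylarylpolyglycol ether emulsifier and sprayed onto maize leaf sections. Dried sections were infested with larvae; % mortality scored after 7 days (100% = all caterpillars killed, 0% = none).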

[6] = test system: adult flies Musca domestica strain WHO-N; experiment: Musca domestica test (MUSCDO surface treatment & contact assay); conditions: 24 hours after contact, read-out: mortality (efficacy); for mortality at 20 mg/m2: surface concentration 20 mg/m^2, 30 minutes exposure
Experimental: Musca domestica Test (MUSCDO Surface Treatment & Contact Assay)
as §1
as §2, with “flies” for “animals”, “Musca domestica” for “Blattella germanica”, “WHO-N” for “PAULINIA”
as §3

[7] = test system: adult mosquitoes Anopheles funestus strain FUMOZ-R; experiment: Anopheles funestus test (ANPHFU surface treatment & contact assay); conditions: surface concentration 20 mg/m^2, 30 minutes exposure, 24 hours after contact, read-out: mortality (efficacy)
Experimental: Anopheles funestus Test (ANPHFU Surface Treatment & Contact Assay)
as §1
as §2, with “mosquitoes” for “animals”, “Anopheles funestus” for “Blattella germanica”, “FUMOZ-R (Hunt et al., Med. Vet. Entomol. 2005 Sep. 19(3): 271-275)” for “PAULINIA”
as §3

[8] = test system: adult unfed cat fleas (Ctenocephalides felis); experiment: Ctenocephalides felis oral test; conditions: 48 h, 100 ppm in citrated cattle blood, after 2 days
In short: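 About 20 adult unfed cat fleas fed through parafilm on citrated cattle blood containing compound (from a DMSO concentrate). Blood held at 37° C, fleas at room temperature. Mortality in % scored after 2 days.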

[9] = test system: larvae of the banded cucumber beetle (Diabrotica balteata); experiment: Diabrotica balteata spray test; conditions: 168 h, after 7 days, read-out: efficacy (seedling growth); for pest or weed control at 6.4 µg/disc, 20 g/ha: 20 g/ha (=6.4 μg/well)
In short: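 Germinated wheat seedlings (5 per well, on agar) sprayed with compound in acetone/DMF with emulsifier-containing water, then infested with 10–20 Diabrotica balteata larvae. Efficacy (%) scored after 7 days from seedling growth: 100% = growth as untreated uninfested control, 0% = no seedlings grown.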

SMILES | mortality at 100 g/ha [1] [%] | pest or weed control at 0.004 mg [2] [%] | mortality at 20 mg/m2 [3] [%] | mortality at 4 mg/m2 [4] [%] | mortality at 20 mg/m2 [4] [%] | mortality at 100 g/ha [5] [%] | mortality at 20 mg/m2 [6] [%] | mortality at 20 mg/m2 [7] [%] | mortality at 100 ppm [8] [%] | pest or weed control at 6.4 µg/disc, 20 g/ha [9] [%] | pest or weed control at 32 µg/disc, 100 g/ha ([9]; 100 g/ha (=32 μg/well)) [%] | mortality at 4 mg/m2 ([6]; surface concentration 4 mg/m^2, 30 minutes exposure) [%]
CC(NC(=O)c1cc(Cl)cc(C(F)(F)F)c1)c1nccnc1-c1ncccn1 (racemic) [Example I-10, (rac)-3-Chloro-N-(1-(3-(pyrimidin-2-yl)pyrazin-2-yl)ethyl)-5-(trifluoromethyl)benzamide] | 100 | 100 | 80 to 100 | 80 to 100 | 80 to 100 | 100 | 80 to 100 | 80 to 100 | 100 | 100 | 100 | –
CC(NC(=O)c1cc(C(F)(F)F)cc(C(F)(F)F)c1)c1nccnc1-c1ncccn1 (racemic) [Example I-8, (rac)-N-(1-(3-(Pyrimidin-2-yl)pyrazin-2-yl)ethyl)-3,5-bis(trifluoromethyl)benzamide] | 100 | 100 | 80 to 100 | 80 to 100 | 80 to 100 | 100 | 80 to 100 | 80 to 100 | 100 | 100 | – | 80 to 100
